Data: PubChem BioAssay (NCI)
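Method: 48-hour compound exposure of cells in 96-well plates, five concentrations, linear interpolation of endpoints. GI50 marks 50% less growth. At the TGI there is no net growth.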

Experiments:
Test in all cases: DTP human tumour cell line panel, 48 h
BT-549 breast = test system: BT-549 breast
HS 578T breast = test system: HS 578T breast
K-562 leukemia = test system: K-562 leukemia
M14 melanoma = test system: M14 melanoma
MCF7 breast = test system: MCF7 breast
MDA-MB-231 breast = test system: MDA-MB-231 breast
NCI-H226 lung = test system: NCI-H226 lung
NCI-H460 lung = test system: NCI-H460 lung
OVCAR-8 ovarian = test system: OVCAR-8 ovarian
SF-539 CNS = test system: SF-539 CNS

SMILES	GI50 (BT-549 breast) [µM]	TGI (BT-549 breast) [µM]	GI50 (HS 578T breast) [µM]	TGI (HS 578T breast) [µM]	GI50 (K-562 leukemia) [µM]	TGI (K-562 leukemia) [µM]	GI50 (M14 melanoma) [µM]	TGI (M14 melanoma) [µM]	GI50 (MCF7 breast) [µM]	TGI (MCF7 breast) [µM]	GI50 (MDA-MB-231 breast) [µM]	TGI (MDA-MB-231 breast) [µM]	GI50 (NCI-H226 lung) [µM]	TGI (NCI-H226 lung) [µM]	GI50 (NCI-H460 lung) [µM]	TGI (NCI-H460 lung) [µM]	GI50 (OVCAR-8 ovarian) [µM]	TGI (OVCAR-8 ovarian) [µM]	GI50 (SF-539 CNS) [µM]	TGI (SF-539 CNS) [µM]
O=C(O)c1ccc(NS(=O)(=O)c2cccc3cccnc23)cc1	> 100	> 100	> 100	> 100	> 100	> 100	> 100	> 100	> 100	> 100	> 100	> 100	> 100	> 100	> 100	> 100	> 100	> 100	> 100	> 100
COc1cc(-c2cn(-c3ccc(Cl)cc3)c(=O)[nH]2)cc(OC)c1OC	> 100	> 100	> 100	> 100	52.1	> 100	> 100	> 100	> 100	> 100	> 100	> 100	> 100	> 100	> 100	> 100	> 100	> 100	> 100	> 100
O=c1[nH]nc2c3c(cccc13)NC(CN1Cc3ccccc3C1)=N2	34.7	> 100	37.4	> 100	8.19	> 100	4.08	> 100	3.82	> 100	5.5	> 100	30.3	> 100	5.25	> 100	15	> 100	7.9	> 100
c1cncc(CNc2ccccc2-c2nnc(Nc3ccc4c(c3)OCCO4)o2)c1	0.861	53	0.232	> 100	0.0432	> 100	0.0704	> 100	0.291	> 100	0.644	> 100	0.153	0.81	0.148	> 32.5	0.435	> 100	0.115	> 100
Nc1ncc(-c2ccc(C(F)(F)F)cc2)c(NC2CCCCCC2)n1	34.9	> 100	25.5	> 100	21	> 100	32.9	> 100	27.5	> 100	21.3	76.9	12.9	> 100	42.7	> 100	32.5	> 100	52.5	> 100
